Assay results reported in US9499550B2 (BRISTOL-MYERS SQUIBB COMPANY, priority 2012, dated 2016).
pEC50: −log10 of the molar value. Read-outs that look alike come from different tables or passages of the source.

How the values were obtained:
[1] = tested on: HCV genotype 1a (H77 strain) replicon in HUH-7 cells; assay: HCV replicon luciferase reporter assay, genotype 1a; format: cell-based; settings: Hepatitis C virus, Huh-7, 72 h, 3 days incubation, read-out: LE_1a (EC50, range)
Procedure, shortened: (§1)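 Replicon inhibition for both genotypes was measured as Renilla luciferase signal (EnduRen, 7.5 μM final, 2 h) after 3-day, 37° C exposure of replicon-bearing HUH-7 cells in 4% FCS DMEM, 0.5% DMSO. The 1b construct carries S1179I; the 1a H77 construct carries P1496L and S2204I. Twenty-point, 3-fold dilutions were fitted four-parametrically for EC50, and CC50 was taken from multiplexed Cell Titer-Blue.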

[2] = tested on: HCV genotype 1b (Con1) replicon in HUH-7 cells; assay: HCV replicon luciferase reporter assay, genotype 1b; format: cell-based; settings: Hepatitis C virus, Huh-7, 72 h, 3 days incubation, read-out: LE_1b (EC50, range)
Procedure, shortened: as §1

[3] = HCV genotype 1a replicon luciferase
[4] = HCV genotype 1b replicon luciferase
[5] = HCV genotype 1a replicon luciferase assay, range class
[6] = HCV genotype 1b replicon luciferase assay, range class

Structure (SMILES) | pEC50 [1, 3] | pEC50 [2, 4] | pEC50 [1, 5] | pEC50 [2, 6] | other results
[2H]C([2H])([2H])C(OC(=O)N[C@@H]1C(=O)N2C[C@H](Oc3nnc(OCC)c4ccccc34)C[C@H]2C(=O)N[C@]2(C(=O)NS(=O)(=O)C3CC3)C[C@H]2/C=C\CC[C@@H](C)C[C@H]1C)(C([2H])([2H])[2H])C(F)(F)F [Compound 5039] | > 8.26 | > 8.26 | – | – | –
CC(C)Oc1cc2c(Cl)cccc2c(O[C@@H]2C[C@H]3C(=O)N[C@]4(C(=O)NS(=O)(=O)C5CC5)C[C@H]4/C=C\CC[C@@H](C)C[C@@H](C)[C@H](NC(=O)OC(C)(C)C)C(=O)N3C2)n1 [Compound 1092, tert-butyl ((2R,6S,7R,9R,13aS,14aR,16aS,Z)-2-((5-chloro-3-isopropoxyisoquinolin-1-yl)oxy)-14a-((cyclopropylsulfonyl)carbamoyl)-7,9-dimethyl-5,16-dioxo-1,2,3,5,6,7,8,9,10,11,13a,14,14a,15,16,16a-hexadecahydrocyclopropa[e]pyrrolo[1,2-a][1,4]diazacyclopentadecin-6-yl)carbamate] | – | – | > 8.26 | > 8.26 | –
COc1cc2cc(-c3ccc(OC(C)C)cc3)nc(O[C@@H]3C[C@H]4C(=O)N[C@]5(C(=O)NS(=O)(=O)C6(C)CC6)C[C@H]5/C=C\CC[C@H](C)C[C@@H](C)[C@H](NC(=O)O[C@@H]5C[C@@H]6C[C@@H]6C5)C(=O)N4C3)c2cc1F [Compound 3191, (1R,3r,5S)-bicyclo[3.1.0]hexan-3-yl((2R,6S,7R,9S,13aS,14aR,16aS,Z)-2-((7-fluoro-3-(4-isopropoxyphenyl)-6-methoxyisoquinolin-1-yl)oxy)-7,9-dimethyl-14a-(((1-methylcyclopropyl)sulfonyl)carbamoyl)-5,16-dioxo-1,2,3,5,6,7,8,9,10,11,13a,14,14a,15,16,16a-hexadecahydrocyclopropa[e]pyrrolo[1,2-a][1,4]diazacyclopentadecin-6-yl)carbamate] | 6.99 to 8.32 | > 8.26 | – | – | –
COc1ccc2c(O[C@@H]3C[C@H]4C(=O)N[C@]5(C(=O)NS(=O)(=O)C6(CF)CC6)C[C@H]5/C=C\CC[C@@H](C)C[C@@H](C)[C@H](NC(=O)OC(C)(C)C)C(=O)N4C3)nc(Cl)cc2c1 [Compound 1163, tert-butyl ((2R,6S,7R,9R,13aS,14aR,16aS,Z)-2-((3-chloro-6-methoxyisoquinolin-1-yl)oxy)-14a-(((1-(fluoromethyl)cyclopropyl)sulfonyl)carbamoyl)-7,9-dimethyl-5,16-dioxo-1,2,3,5,6,7,8,9,10,11,13a,14,14a,15,16,16a-hexadecahydrocyclopropa[e]pyrrolo[1,2-a][1,4]diazacyclopentadecin-6-yl)carbamate] | – | – | > 8.26 | > 8.26 | –
CCCOc1cnc(O[C@@H]2C[C@H]3C(=O)N[C@]4(C(=O)NS(=O)(=O)C5CC5)C[C@H]4/C=C\CC[C@@H](C)C[C@@H](C)[C@H](NC(=O)NC(C)(C)C(F)(F)F)C(=O)N3C2)c2ccccc12 [Compound 5099, (2R,6S,7R,9R,13aS,14aR,16aS,Z)—N-(cyclopropylsulfonyl)-7,9-dimethyl-5,16-dioxo-2-((4-propoxyisoquinolin-1-yl)oxy)-6-(3-(1,1,1-trifluoro-2-methylpropan-2-yl)ureido)-1,2,3,5,6,7,8,9,10,11,13a,14,14a,15,16,16a-hexadecahydrocyclopropa[e]pyrrolo[1,2-a][1,4]diazacyclopentadecine-14a-carboxamide] | > 8.26 | > 8.26 | – | – | –
CC[C@@H]1C[C@H](C)CC/C=C\[C@@H]2C[C@@]2(C(=O)NS(=O)(=O)C2(C)CC2)NC(=O)[C@@H]2C[C@@H](Oc3ncc(OC4CC4)c4ccccc34)CN2C(=O)[C@H]1NC(=O)OC(C)(C)C(F)(F)F [Compound 4223] | – | – | – | – | pEC50 ([1]; GETYPE1A, HCV genotype 1a replicon luciferase): > 8.26; pEC50 ([2]; GETYPE1B, HCV genotype 1b replicon luciferase): > 8.26
COc1ccc2c(O[C@@H]3C[C@H]4C(=O)N[C@]5(C(=O)NS(=O)(=O)C6(CF)CC6)C[C@H]5/C=C\CC[C@H](C)C[C@@H](C)[C@H](NC(=O)OC5(C(F)(F)F)CCCOC5)C(=O)N4C3)nc(C(F)(F)F)cc2c1 (stereo partly drawn) [Compound 1172, 3-(trifluoromethyl)tetrahydro-2H-pyran-3-yl((2R,6S,7R,9S,13aS,14aR,16aS,Z)-14a-(((1-(fluoromethyl)cyclopropyl)sulfonyl)carbamoyl)-2-((6-methoxy-3-(trifluoromethyl)isoquinolin-1-yl)oxy)-7,9-dimethyl-5,16-dioxo-1,2,3,5,6,7,8,9,10,11,13a,14,14a,15,16,16a-hexadecahydrocyclopropa[e]pyrrolo[1,2-a][1,4]diazacyclopentadecin-6-yl)carbamate] | – | – | < 7.06 | 6.99 to 8.32 | –
COc1cnc(O[C@@H]2C[C@H]3C(=O)N[C@]4(C(=O)NS(=O)(=O)C5(CO)CC5)C[C@H]4/C=C\CC[C@@H](C)C[C@@H](C)[C@H](N)C(=O)N3C2)c2ccccc12 [Compound 4112, (2R,6S,7R,9R,13aS,14aR,16aS,Z)-6-amino-N-(1-(hydroxymethyl)cyclopropylsulfonyl)-2-(4-methoxyisoquinolin-1-yloxy)-7,9-dimethyl-5,16-dioxo-1,2,3,5,6,7,8,9,10,11,13a,14,14a,15,16,16a-hexadecahydrocyclopropa[e]pyrrolo[1,2-a][1,4]diazacyclopentadecine-14a-carboxamide] | < 7.06 | < 7.06 | – | – | –
COc1ccc2c(O[C@@H]3C[C@H]4C(=O)N[C@]5(C(=O)NS(=O)(=O)C6CC6)C[C@H]5/C=C\CC[C@@H](C)C[C@@H](C)[C@H](NC(=O)OC(C)(C)C)C(=O)N4C3)nc(-c3ccc4c(c3)OCCO4)cc2c1 [Compound 5239, tert-butyl ((2R,6S,7R,9R,13aS,14aR,16aS,Z)-14a-((cyclopropylsulfonyl)carbamoyl)-2-((3-(2,3-dihydrobenzo[b][1,4]dioxin-6-yl)-6-methoxyisoquinolin-1-yl)oxy)-7,9-dimethyl-5,16-dioxo-1,2,3,5,6,7,8,9,10,11,13a,14,14a,15,16,16a-hexadecahydrocyclopropa[e]pyrrolo[1,2-a][1,4]diazacyclopentadecin-6-yl)carbamate] | > 8.26 | > 8.26 | – | – | –
COc1ccc2c(O[C@@H]3C[C@H]4C(=O)N[C@]5(C(=O)NS(=O)(=O)C6CC6)C[C@H]5/C=C\CC[C@@H](C)C[C@@H](C)[C@H](NC(=O)NC(C)(C)C)C(=O)N4C3)nc(-c3ccc(OC(C)C)cn3)cc2c1 [Compound 5211, (2R,6S,7R,9R,13aS,14aR,16aS,Z)-6-(3-(tert-butyl)ureido)-N-(cyclopropylsulfonyl)-2-((3-(5-isopropoxypyridin-2-yl)-6-methoxyisoquinolin-1-yl)oxy)-7,9-dimethyl-5,16-dioxo-1,2,3,5,6,7,8,9,10,11,13a,14,14a,15,16,16a-hexadecahydrocyclopropa[e]pyrrolo[1,2-a][1,4]diazacyclopentadecine-14a-carboxamide] | > 8.26 | > 8.26 | – | – | –
C[C@H]1CC/C=C\[C@@H]2C[C@@]2(C(=O)NS(=O)(=O)C2(C)CC2)NC(=O)[C@@H]2C[C@@H](Oc3nccc4c5c(ccc34)N(C)CCO5)CN2C(=O)[C@@H](NC(=O)C(=O)N(C)C)[C@H](C)C1 [Compound 5305, N1-((2R,6S,7R,9S,13aS,14aR,16aS,Z)-7,9-dimethyl-2-((4-methyl-3,4-dihydro-2H-[1,4]oxazino[2,3-f]isoquinolin-7-yl)oxy)-14a-(((1-methylcyclopropyl)sulfonyl)carbamoyl)-5,16-dioxo-1,2,3,5,6,7,8,9,10,11,13a,14,14a,15,16,16a-hexadecahydrocyclopropa[e]pyrrolo[1,2-a][1,4]diazacyclopentadecin-6-yl)-N2,N2-dimethyloxalamide] | 6.99 to 8.32 | 6.99 to 8.32 | – | – | –
COc1cc(F)cc2c(O[C@@H]3C[C@H]4C(=O)N[C@]5(C(=O)NS(=O)(=O)C6(C)CC6)C[C@H]5/C=C\CC[C@@H](C)C[C@@H](C)[C@H](NC(=O)OC(C)(C)C(F)(F)F)C(=O)N4C3)nccc12 [Compound 3156, 1,1,1-trifluoro-2-methylpropan-2-yl((2R,6S,7R,9R,13aS,14aR,16aS,Z)-2-((7-fluoro-5-methoxyisoquinolin-1-yl)oxy)-7,9-dimethyl-14a-(((1-methylcyclopropyl)sulfonyl)carbamoyl)-5,16-dioxo-1,2,3,5,6,7,8,9,10,11,13a,14,14a,15,16,16a-hexadecahydrocyclopropa[e]pyrrolo[1,2-a][1,4]diazacyclopentadecin-6-yl)carbamate] | – | – | > 8.26 | > 8.26 | –
COc1cnc(O[C@@H]2C[C@H]3C(=O)N[C@]4(C(=O)NS(=O)(=O)C5(F)CC5)C[C@H]4/C=C\CC[C@@H](C)C[C@@H](C)[C@H](NC(=O)OCC4(C)CC4)C(=O)N3C2)c2cc(F)ccc12 [Compound 4048, (1-methylcyclopropyl)methyl (2R,6S,7R,9R,13aS,14aR,16aS,Z)-2-(7-fluoro-4-methoxyisoquinolin-1-yloxy)-14a-(1-fluorocyclopropylsulfonylcarbamoyl)-7,9-dimethyl-5,16-dioxo-1,2,3,5,6,7,8,9,10,11,13a,14,14a,15,16,16a-hexadecahydrocyclopropa[e]pyrrolo[1,2-a][1,4]diazacyclopentadecin-6-ylcarbamate] | > 8.26 | > 8.26 | – | – | –
